Source: patent US20150141381A1, “TETRACYCLINE COMPOUNDS HAVING TARGET THERAPEUTIC ACTIVITIES” (Paratek Pharmaceuticals, Inc., priority 2001, published 2015)
Where two headings read alike, the source gives them in different places.

Legend:
S. aureus RN450 = experiment: In Vitro Anti-Bacterial Activity Assay (MIC), gram positive; format: cell-based; conditions: Staphylococcus aureus, RN450, 18 h
E. coli mL308 225 = experiment: In Vitro Anti-Bacterial Activity Assay (MIC), gram negative; format: cell-based; conditions: Escherichia coli, ML308225, 18 h
[1] = MIC class, Table 3 (Continued), read-out: Gram+ activity
[2] = MIC class, Table 3 (Continued), read-out: Gram− activity
[3] = gram positive bacteria, read-out: Antibiotic Activity Gram + (MIC)
[4] = gram negative bacteria, read-out: Antibiotic Activity Gram − (MIC)
[5] = MIC class, Table 3, read-out: Antibiotic Activity Gram +
[6] = MIC class, Table 3, read-out: Antibiotic Activity Gram −

| SMILES | MIC (S. aureus RN450; [3]) | MIC (E. coli mL308 225; [4]) | MIC (S. aureus RN450; [5]) | MIC (E. coli mL308 225; [6]) | also measured |
| --- | --- | --- | --- | --- | --- |
| CCNc1ccc(-c2ccc(O)c3c2C[C@H]2C[C@H]4[C@H](N(C)C)C(O)=C(C(N)=O)C(=O)[C@@]4(O)C(O)=C2C3=O)cc1 |  |  |  |  | MIC (S. aureus RN450; [1]): < 4 µg/mL; MIC (E. coli mL308 225; [2]): < 4 µg/mL |
| CC(=O)CCC(=O)Nc1ccc2c(c1O)C(=O)C1=C(O)[C@]3(O)C(=O)C(C(N)=O)=C(O)[C@@H](N(C)C)[C@@H]3C[C@@H]1C2 | > 4 µg/mL | > 4 µg/mL |  |  |  |
| CC(C)NCc1ccc(-c2ccc(O)c3c2C[C@H]2C[C@H]4C(N(C)C)C(O)=C(C(N)=O)C(=O)[C@@]4(O)C(O)=C2C3=O)cc1 (stereo partly drawn) [GL] |  |  | < 4 µg/mL | < 4 µg/mL |  |
| Cc1ccc(/C=C/c2ccc(O)c3c2C[C@H]2C[C@H]4[C@H](N(C)C)C(O)=C(C(N)=O)C(=O)[C@@]4(O)C(O)=C2C3=O)cc1 [drawing 3345] | < 4 µg/mL | < 4 µg/mL |  |  |  |
| COc1ccc(CNCCN(C)C)cc1-c1ccc(O)c2c1C[C@H]1C[C@H]3[C@H](N(C)C)C(O)=C(C(N)=O)C(=O)[C@@]3(O)C(O)=C1C2=O [GA] |  |  | < 4 µg/mL | > 4 µg/mL |  |
| CN(C)c1cc(CNCCC(F)(F)F)c(O)c2c1C[C@H]1C[C@H]3[C@H](N(C)C)C(O)=C(C(N)=O)C(=O)[C@@]3(O)C(O)=C1C2=O [drawing 3671] | < 4 µg/mL | < 4 µg/mL |  |  |  |
| CN(C)[C@@H]1C(O)=C(C(N)=O)C(=O)[C@@]2(O)C(O)=C3C(=O)c4c(O)ccc(CCc5ccccn5)c4C[C@H]3C[C@@H]12 [BY] |  |  | < 4 µg/mL | > 4 µg/mL |  |
| CN(C)c1cc(CN2CCC(C(F)(F)F)CC2)c(O)c2c1C[C@H]1C[C@H]3[C@H](N(C)C)C(O)=C(C(N)=O)C(=O)[C@@]3(O)C(O)=C1C2=O | < 4 µg/mL | < 4 µg/mL |  |  |  |
| CN(C)[C@@H]1C(O)=C(C(N)=O)C(=O)[C@@]2(O)C(O)=C3C(=O)c4c(ccc(CNCC(C)(C)C)c4O)C[C@H]3C[C@@H]12 [MZ] |  |  | < 4 µg/mL | < 4 µg/mL |  |
| CN(C)[C@@H]1C(O)=C(C(N)=O)C(=O)[C@@]2(O)C(O)=C3C(=O)c4c(O)ccc(-c5ncccn5)c4C[C@H]3C[C@@H]12 | < 4 µg/mL | < 4 µg/mL |  |  |  |
| CN(C)[C@@H]1C(O)=C(C(N)=O)C(=O)[C@@]2(O)C(O)=C3C(=O)c4c(O)ccc(CCC(=O)N5CCOCC5)c4C[C@H]3C[C@@H]12 | < 4 µg/mL | > 4 µg/mL |  |  |  |
| CCOC(=O)CNCc1ccc(-c2ccc(O)c3c2C[C@H]2C[C@H]4[C@H](N(C)C)C(O)=C(C(N)=O)C(=O)[C@@]4(O)C(O)=C2C3=O)c2ccccc12 | < 4 µg/mL | < 4 µg/mL |  |  |  |
| CCOC(=O)/C(I)=C/C(=C/c1ccc(O)c2c1C[C@H]1C[C@H]3[C@H](N(C)C)C(O)=C(C(N)=O)C(=O)[C@@]3(O)C(O)=C1C2=O)C(=O)OCC [AX] |  |  | > 4 µg/mL | > 4 µg/mL |  |
| CC(=O)Nc1cc(-c2ccccn2)c2c(c1O)C(=O)C1=C(O)[C@]3(O)C(=O)C(C(N)=O)=C(O)[C@@H](N(C)C)[C@@H]3C[C@@H]1C2 | < 4 µg/mL | > 4 µg/mL |  |  |  |
| CN(C)[C@@H]1C(O)=C(C(N)=O)C(=O)[C@@]2(O)C(O)=C3C(=O)c4c(O)ccc(-c5ccccc5)c4C[C@H]3C[C@@H]12 | < 4 µg/mL | < 4 µg/mL |  |  |  |
| CN(C)[C@@H]1C(O)=C(C(N)=O)C(=O)[C@@]2(O)C(O)=C3C(=O)c4c(O)ccc(/C=C/c5ccc(Br)cc5)c4C[C@H]3C[C@@H]12 [BL] |  |  | < 4 µg/mL | > 4 µg/mL |  |
| CN(C)[C@@H]1C(O)=C(C(N)=O)C(=O)[C@@]2(O)C(O)=C3C(=O)c4c(O)ccc(Br)c4C[C@H]3C[C@@H]12 |  |  |  |  | MIC (S. aureus RN450; [1]): < 4 µg/mL; MIC (E. coli mL308 225; [2]): < 4 µg/mL |
| CN(C)[C@H]1C(O)=C(C(N)=O)C(=O)[C@@]2(O)C(O)=C3C(=O)c4c(O)ccc(-c5ccc(/N=C\NC(C)(C)C)cc5)c4C[C@H]3C[C@@H]12 [GU] |  |  | < 4 µg/mL | < 4 µg/mL |  |
| CN(C)[C@@H]1C(O)=C(C(N)=O)C(=O)[C@@]2(O)C(O)=C3C(=O)c4c(O)ccc(C#CC(=O)O)c4C[C@H]3C[C@@H]12 [BH] |  |  | > 4 µg/mL | > 4 µg/mL |  |
| CN(C)c1cc(CNCC(=O)O)c(O)c2c1C[C@H]1C[C@H]3[C@H](N(C)C)C(O)=C(C(N)=O)C(=O)[C@@]3(O)C(O)=C1C2=O | > 4 µg/mL | > 4 µg/mL |  |  |  |
| CCNCc1cc(N(C)C)c2c(c1O)C(=O)C1=C(O)[C@]3(O)C(=O)C(C(N)=O)=C(O)[C@@H](N(C)C)[C@@H]3C[C@@H]1C2 | < 4 µg/mL | > 4 µg/mL |  |  |  |
| CN(C)c1cc(C#CC2(O)CCCCC2)c(O)c2c1C[C@H]1C[C@H]3[C@H](N(C)C)C(O)=C(C(N)=O)C(=O)[C@@]3(O)C(O)=C1C2=O [AN] |  |  | > 4 µg/mL | > 4 µg/mL |  |
| CN(C)[C@@H]1C(O)=C(C(N)=O)C(=O)[C@@]2(O)C(O)=C3C(=O)c4c(O)ccc(-c5ccc(/C=N/O)o5)c4C[C@H]3C[C@@H]12 [NA] |  |  | < 4 µg/mL | < 4 µg/mL |  |

| SMILES | MIC (S. aureus RN450; [3]) | MIC (E. coli mL308 225; [4]) | MIC (S. aureus RN450; [5]) | MIC (E. coli mL308 225; [6]) | also measured |
| --- | --- | --- | --- | --- | --- |
| CN(C)c1cc(CNCC2CCCCC2)c(O)c2c1C[C@H]1C[C@H]3[C@H](N(C)C)C(O)=C(C(N)=O)C(=O)[C@@]3(O)C(O)=C1C2=O [MK] |  |  | < 4 µg/mL | < 4 µg/mL |  |
| CN(C)[C@@H]1C(O)=C(C(N)=O)C(=O)[C@@]2(O)C(O)=C3C(=O)c4c(O)ccc(C#Cc5cccnc5)c4C[C@H]3C[C@@H]12 |  |  |  |  | MIC (S. aureus RN450; [1]): < 4 µg/mL; MIC (E. coli mL308 225; [2]): < 4 µg/mL |
| CCN(Cc1ccccc1)Cc1cc(N(C)C)c2c(c1O)C(=O)C1=C(O)[C@]3(O)C(=O)C(C(N)=O)=C(O)[C@@H](N(C)C)[C@@H]3C[C@@H]1C2 | < 4 µg/mL | < 4 µg/mL |  |  |  |
| CN(C)CC(=O)NCc1ccc(-c2ccc(O)c3c2C[C@H]2C[C@H]4[C@H](N(C)C)C(O)=C(C(N)=O)C(=O)[C@@]4(O)C(O)=C2C3=O)cc1 | < 4 µg/mL | > 4 µg/mL |  |  |  |
| CN(C)[C@@H]1C(O)=C(C(N)=O)C(=O)[C@@]2(O)C(O)=C3C(=O)c4c(O)ccc(-c5cccc(C=O)c5)c4C[C@H]3C[C@@H]12 [BF] |  |  | < 4 µg/mL | < 4 µg/mL |  |
| CN(C)c1cc(CN2CCC3(CC2)OCCO3)c(O)c2c1C[C@H]1C[C@H]3[C@H](N(C)C)C(O)=C(C(N)=O)C(=O)[C@@]3(O)C(O)=C1C2=O | < 4 µg/mL | < 4 µg/mL |  |  |  |
| CCN(CC)c1ccc(-c2c[nH]c(Nc3ccc4c(c3O)C(=O)C3=C(O)[C@]5(O)C(=O)C(C(N)=O)=C(O)[C@@H](N(C)C)[C@@H]5[C@@H](O)[C@@H]3[C@H]4C)n2)cc1 |  |  |  |  | MIC (S. aureus RN450; [1]): < 4 µg/mL; MIC (E. coli mL308 225; [2]): > 4 µg/mL |
| CN(C)CC(=O)NCc1cc(N(C)C)c2c(c1O)C(=O)C1=C(O)[C@]3(O)C(=O)C(C(N)=O)=C(O)[C@@H](N(C)C)[C@@H]3C[C@@H]1C2 | < 4 µg/mL | > 4 µg/mL |  |  |  |
| CNC(=O)Oc1ccc(-c2ccc(O)c3c2C[C@H]2C[C@H]4[C@H](N(C)C)C(O)=C(C(N)=O)C(=O)[C@@]4(O)C(O)=C2C3=O)cc1 |  |  |  |  | MIC (S. aureus RN450; read-out: Antibiotic Activity Gram + (MIC)): < 4 µg/mL; MIC (E. coli mL308 225; read-out: Antibiotic Activity Gram − (MIC)): < 4 µg/mL |
| CN(C)[C@@H]1C(O)=C(C(N)=O)C(=O)[C@@]2(O)C(O)=C3C(=O)c4c(O)ccc(C#CCc5ccccc5)c4C[C@H]3C[C@@H]12 |  |  |  |  | MIC (S. aureus RN450; [1]): < 4 µg/mL; MIC (E. coli mL308 225; [2]): < 4 µg/mL |
| CN(C)CCNC(=O)c1ccc(-c2ccc(O)c3c2C[C@H]2C[C@H]4[C@H](N(C)C)C(O)=C(C(N)=O)C(=O)[C@@]4(O)C(O)=C2C3=O)cc1 | < 4 µg/mL | > 4 µg/mL |  |  |  |
| Cc1ccc(-c2ccc(O)c3c2C[C@H]2C[C@H]4[C@H](N(C)C)C(O)=C(C(N)=O)C(=O)[C@@]4(O)C(O)=C2C3=O)cc1N | < 4 µg/mL | < 4 µg/mL |  |  |  |
| Cc1ccc(-c2ccc(O)c3c2C[C@H]2C[C@H]4[C@H](N(C)C)C(O)=C(C(N)=O)C(=O)[C@@]4(O)C(O)=C2C3=O)nc1 | < 4 µg/mL | < 4 µg/mL |  |  |  |
| CN(C)[C@@H]1C(O)=C(C(N)=O)C(=O)[C@@]2(O)C(O)=C3C(=O)c4c(O)c(C(C)(C)C)cc(-c5cnc6ccccc6c5)c4C[C@H]3C[C@@H]12 | > 4 µg/mL | > 4 µg/mL |  |  |  |
| CC(=O)O[C@H]1[C@H]2C(=C(O)[C@]3(O)C(=O)C(C(N)=O)=C(O)[C@@H](N(C)C)[C@H]13)C(=O)c1c(ccc(CN3CCC(C(F)(F)F)CC3)c1O)[C@@H]2C | < 4 µg/mL | < 4 µg/mL |  |  |  |
| CN(C)[C@@H]1C(O)=C(C(N)=O)C(=O)[C@@]2(O)C(O)=C3C(=O)c4c(O)ccc(-c5ccc(NC(=O)c6ccno6)cc5)c4C[C@H]3C[C@@H]12 [IN] |  |  | < 4 µg/mL | > 4 µg/mL |  |
| COc1ccc(C#Cc2cc(N(C)C)c3c(c2O)C(=O)C2=C(O)[C@]4(O)C(=O)C(C(N)=O)=C(O)[C@@H](N(C)C)[C@@H]4C[C@@H]2C3)cc1 |  |  |  |  | MIC (S. aureus RN450; [1]): < 4 µg/mL; MIC (E. coli mL308 225; [2]): < 4 µg/mL |
| CN(C)[C@@H]1C(O)=C(C(N)=O)C(=O)[C@@]2(O)C(O)=C3C(=O)c4c(O)ccc(CN5CCCC5)c4C[C@H]3C[C@@H]12 | < 4 µg/mL | < 4 µg/mL |  |  |  |
| COc1ccc(-c2ccc(O)c3c2C[C@H]2C[C@H]4[C@H](N(C)C)C(O)=C(C(N)=O)C(=O)[C@@]4(O)C(O)=C2C3=O)cc1CN [HI] |  |  | < 4 µg/mL | > 4 µg/mL |  |
| CN(C)c1cc(NCc2ccccc2OC(C)(C)C)c(O)c2c1C[C@H]1C[C@H]3[C@H](N(C)C)C(O)=C(C(N)=O)C(=O)[C@@]3(O)C(O)=C1C2=O | < 4 µg/mL | > 4 µg/mL |  |  |  |
| CCCCc1ccc(-c2cc(N(C)C)c3c(c2O)C(=O)C2=C(O)[C@]4(O)C(=O)C(C(N)=O)=C(O)[C@@H](N(C)C)[C@@H]4C[C@@H]2C3)cc1 [EI] |  |  | > 4 µg/mL | > 4 µg/mL |  |
| CCc1cc(CN2CCC(F)(F)CC2)c(O)c2c1C[C@H]1C[C@H]3[C@H](N(C)C)C(O)=C(C(N)=O)C(=O)[C@@]3(O)C(O)=C1C2=O [drawing 3695] | < 4 µg/mL | < 4 µg/mL |  |  |  |
